Several values for one entry are separate records, joined by “and”; a condition that tells them apart may be missing. Equal values may be shown once.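 Values below derive from 48-hour exposures of cells grown in 96-well plates, with endpoints linearly interpolated between the two concentrations bracketing the appropriate inhibition level. GI50 is the concentration that inhibits growth by half. TGI: concentration producing complete growth inhibition.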
Experiments:
Assay in all cases: growth of human tumour cells (NCI), 48 h
[1] = tested on: SW-620 colon
[2] = tested on: K-562 leukemia
[3] = tested on: SK-MEL-2 melanoma
[4] = tested on: HCT-116 colon
[5] = tested on: IGROV1 ovarian
[6] = tested on: SF-295 CNS
[7] = tested on: OVCAR-3 ovarian
[8] = tested on: SK-MEL-28 melanoma
[9] = tested on: ACHN renal
[10] = tested on: UACC-257 melanoma

Structure (SMILES) | GI50 [1] [µM] | TGI [1] | GI50 [2] [µM] | TGI [2] | GI50 [3] [µM] | TGI [3] | GI50 [4] [µM] | TGI [4] [µM] | GI50 [5] [µM] | TGI [5] [µM] | GI50 [6] [µM] | TGI [6] | GI50 [7] [µM] | TGI [7] [µM] | GI50 [8] [µM] | TGI [8] | GI50 [9] [µM] | TGI [9] [µM] | GI50 [10] [µM] | TGI [10] [µM]
COC(=O)[C@]12CC[C@@H](C)[C@H](C)[C@@H]1C1=CC[C@@H]3[C@@]4(C)C(C=O)=C[C@@](C)(COS(C)(=O)=O)C4=CC[C@@]3(C)[C@]1(C)CC2 | 0.209 | 0.484 µM | 0.308 | 1.17 µM | 0.226 | 0.497 µM | 0.16 | 0.321 | 0.318 | 1.06 | 0.296 | 1.26 µM | 0.183 | 0.359 | 0.198 | 0.415 µM | 0.171 | 0.317 |  | 
NC(=O)c1nc(-c2c(F)cccc2Cl)oc1Nc1ccc(C(=O)N2CCOCC2)cc1 | 0.703 | > 100 µM | 4.66 | > 100 µM | 12.7 | 58.6 µM | 1.36 | 20 |  |  | 1.61 | > 100 µM | 10.3 | > 100 | 13.9 | > 100 µM | 2.41 | > 100 | 11.9 | 41.1
CCOC(=O)c1cc(C(=O)c2ccc(OC)c(OC)c2)n2c1ccc1ccc3cccnc3c12 | 0.93 | > 100 µM |  |  | 2.67 | 66.6 µM | 0.619 | > 100 | 2.33 | > 100 |  |  |  |  | 3.7 | > 100 µM | 2.4 | > 100 | 25 | > 100
CCOC(=O)[C@@H](C)C[C@H](Cc1ccccc1)NC(=O)c1csc([C@@H](C[C@H](C(C)C)N(C)C(=O)CNC(=O)[C@H]2CCCCN2C)OC(C)=O)n1 | 0.733 | > 14.3 µM | 0.358 | > 14.3 µM | 0.69 | > 14.3 µM | 0.529 | > 14.3 | 0.628 | > 14.3 | 0.621 | 6.85 µM | 0.334 | 1.33 | 1.52 | > 14.3 µM | 0.837 | > 14.3 |  | 
N#Cc1ccccc1Sc1ccccc1N |  | > 100 µM |  | > 100 µM |  | > 100 µM |  |  |  | > 100 |  | > 100 µM |  |  |  | > 100 µM |  | > 100 |  | > 100
CCCC(O)[C@@]1(CC)CC(C)C(O)(C2(C)C[C@H](C)[C@@H](C(CC)C(=O)C(C)[C@@H](O)[C@H](C)C3OC(O)(C(CC)C(=O)O)[C@@H](C)C(O)C3CC)O2)O1 (stereo partly drawn) |  | 2.9 µM |  |  |  | 1.73 µM |  | 1.6 |  | 9.81 |  | 4.91 µM |  | 2.62 |  | 1.69 µM |  | 6.78 |  | 1.94
Cc1ccc(-n2nc(C(OC3OC(CO)C(O)C(O)C3O)C(O)CO)c3nc4cc(C)c(C)cc4nc32)cc1 (stereo not drawn) |  |  |  | > 100 µM |  |  |  | > 100 |  |  |  | > 100 µM |  | > 100 |  | > 100 µM |  | > 100 |  | > 100
O=C([O-])c1ccc([I+]c2ccccc2)cc1 |  | > 100 µM |  | > 100 µM |  | > 100 µM |  | > 100 |  | > 100 |  | > 100 µM |  | > 100 |  |  |  |  |  | > 100
CCC(Oc1ccc(OC)c2c1C(=O)CCC2)C(=O)O (stereo not drawn) |  | > 100 µM |  | > 100 µM |  | > 100 µM |  |  |  | > 100 |  | > 100 µM |  | > 100 |  | > 100 µM |  | > 100 |  | > 100
O=c1[nH]c2ccccc2cc1-c1nnc(Cc2ccccc2)o1 | 1.87 | 4.16 µM | 3.29 | 14.4 µM |  |  | 1.41 | 3.1 | 5.2 | 27.1 | 11.2 | 32.2 µM | 3.25 | 11 |  |  |  |  | 4.79 | 24.4
O=C1OC(=O)c2c1nc1ccccc1c2-c1ccccc1 |  | > 100 µM |  | > 100 µM |  | > 100 µM |  | > 100 |  | > 100 |  | > 100 µM |  |  |  |  |  | > 100 |  | > 100
COc1ccc([C@@]23Oc4cc(OC)cc(OC)c4[C@]2(O)[C@H](O)[C@H](C(=O)N(C)C)[C@H]3c2ccccc2)cc1 |  | 1.02 µM and 0.26 µM and 0.244 µM | 0.00334 | 25 µM and > 100 µM | 0.0225 | 0.0938 µM and 0.0112 µM and 0.0709 µM |  |  | 0.0248 |  | 0.0124 | 0.0433 µM and 0.0867 µM | 0.0164 |  | 0.0134 | 0.0616 µM and 0.0292 µM and 0.0492 µM |  |  | 0.0309 | 
COS(=O)c1cc(Cl)cc(Cl)c1OC(=O)CSSCC(=O)Oc1c(Cl)cc(Cl)cc1S(=O)OC (stereo not drawn) |  | 58.4 µM |  | 51.1 µM |  | 51.4 µM |  |  |  | 46.5 |  | 67.5 µM |  | 86.4 |  | 33.8 µM |  | 64.2 |  | 65.3
C=C1C(=O)O[C@@H]2C[C@@]3(C)[C@H](O)CCC(=C)[C@@H]3C[C@H]12 |  | 11.7 µM |  | 10.2 µM |  | 40 µM |  | 18.5 |  | 45.2 |  | 27.2 µM |  | 21.4 |  | 20.2 µM |  | 27.8 |  | 
Nc1nc(Cl)c2ncn(Cc3ccc(C45CC6CC(CC(C6)C4)C5)c(OCc4cc(F)c(F)cc4F)c3)c2n1 | 2.14 | 20.5 µM |  |  | 5.84 | 20.4 µM | 1.03 | 2.2 | 2.77 | 13.8 | 3.44 | 17.1 µM | 2.09 | 14.7 | 8.12 | 26.3 µM | 3.4 | 13.7 | 0.494 | 3.97
C/C(=C/CCC(C)[C@@H]1CC[C@]2(C)C3=C(CC[C@@]12C)[C@@]1(C)CCC(=O)C(C)(C)[C@@H]1CC3)C(=O)O (stereo partly drawn) | 1.39 | 3.41 µM |  |  | 1.26 | 2.89 µM | 0.858 | 2.3 | 1.19 | 2.6 | 0.506 | 2.02 µM | 1.41 | 2.79 | 1.42 | 2.82 µM | 1.29 | 2.73 | 1.56 | 3.06
CCCCCCCCCCCCCCCC(=O)OCC1OC(n2cc(F)c(=O)[nH]c2=O)C(NC(=O)OCc2ccccc2)C(O)C1O (stereo not drawn) |  | 73 µM |  | 31.8 µM |  | 32 µM |  | 30.4 |  | 46.6 |  | 32.5 µM |  | 33.8 |  |  |  | > 100 |  | 
C#Cc1cccc(NC(=O)/C=C\C(=O)O)c1 |  | > 100 µM |  | > 100 µM |  | > 100 µM |  | > 100 |  |  |  | > 100 µM |  |  |  | > 100 µM |  | > 100 |  | > 100

Source: PubChem BioAssay (NCI)
